According to patent publication US12551523B2, “HIF-1 activator” (NUTRITION ACT CO., LTD., priority 2021, dated 2026):

Each compound was assayed on K562 cells (assay: GYPA gene expression in K562 cells (quantitative real-time PCR)). Details: olive leaf components alone or in combination.
Format: cell-based, human
Procedure: K562 cells (Riken Cell Bank) were seeded in a 6-well plate using RPMI 1640 Medium (Gibco Waltham, MA, USA) containing 10% FBS and 1% penicillin/streptomycin solution added to a cell concentration of 2×10^4 cell/ml, and the cells were cultured in 5% CO2 at 37° C., 95% humidification. On the following day, the medium was replaced with a mixed solution of oleuropein (OP) and oleuroside (OS), and reaction was conducted for 6 days. The mixing proportions were as follows: (a) combinations of 35.36 μM OP and different concentrations of OS (1.18, 3.54, 5.23, 7.10, 17.68, 23.57, 35.36 and 43.85 μM), and (b) combinations of 5.23 μM OS and different concentrations of OP (0.52, 2.62, 5.23, 10.46, 20.92, 35.36, 41.84 and 52.30 μM). The medium was replaced every 3 days.
After 6 days of reaction, the medium was removed from the cells, Isogen (Nippon Gene Co., Ltd.) was added for sonication, and the total RNA was extracted according to the manufacturer's protocol. The RNA concentration was measured using a NanoDrop 2000 spectrometer (Thermo Scientific, USA). For cDNA synthesis, 4 μl of SuperScript IV VILO Master Mix (Invitrogen) and 16 μl of total RNA solution (final RNA concentration: 10 ng/20 μl) were mixed in a PCR tube, and a MiniAmp Plus thermal cycler (Applied Biosystems) was used for reverse transcription. The thermal cycle was 10 minutes at 25° C., 10 minutes at 50° C., 5 minutes at 85° C. and 1 minute at 4° C. Quantitative real-time PCR was carried out for gene expression analysis. The Taqman primer and probe set used for the target gene expression analysis was the following: GYPA (Hs011068079_s1). ACTB (Hs03023880 g1 was used as the endogenous standard. For Taqman real-time PCR amplification reaction and gene expression level quantitation, 10 μL of TaqMan Gene Expression Master Mix (Applied Biosystems), 1 μL of each primer and probe set and 9 μL of cDNA (final cDNA concentration: […]) were mixed, and an AB 7500 Fast Real-Time PCR system (Applied Biosystems) was used. The thermal cycle was 2 minutes at 50° C., 10 minutes at 95° C., 15 seconds at 95° C. (50 cycles) and 1 minute at 60° C. The gene expression levels were calculated by the ΔΔCt method.
Two types of olive leaf extract with different content ratios of oleuropein and oleuroside were used to treat K562 cells, and the GYPA gene expression levels were measured by real-time PCR, as an erythroid differentiation marker. The test substances used were olive leaf extract A: 120 μg/mL (1.89 μg oleuroside: 15.44 μg oleuropein) (“extract A”, corresponding to the invention), and olive leaf extract B: 120 μg/mL (1.56 μg oleuroside: 40.26 μg oleuropein) (“extract B”).
The hydroxytyrosol, oleuropein, oleuroside, apigenin, apigenin-7-glucoside, apigenin-7-O-rutinoside, luteolin and luteolin-7-O-glucoside present in olive leaves were used either alone or in combination to measure the GYPA gene expression effect by the same method as for the synergistic effect with OP/OS at 10:1 to 1:10 using GYPA as the marker. GYPA gene expression increased only with the combination of oleuroside and oleuropein.

| SMILES | GYPA expression increase |
| --- | --- |
| O=c1cc(-c2ccc(O)cc2)oc2cc(O[C@@H]3O[C@H](CO)[C@@H](O)[C@H](O)[C@H]3O)cc(O)c12 [A7G, Apigenin-7-O-glucoside] | No |
| C[C@@H]1O[C@@H](OC[C@H]2O[C@@H](Oc3cc(O)c4c(=O)cc(-c5ccc(O)cc5)oc4c3)[C@H](O)[C@@H](O)[C@@H]2O)[C@H](O)[C@H](O)[C@H]1O [A7R, Apigenin-7-O-rutinoside] | No |
| O=c1cc(-c2ccc(O)cc2)oc2cc(O)cc(O)c12 [A, Apigenin] | No |
| O=c1cc(-c2ccc(O)c(O)c2)oc2cc(O[C@@H]3O[C@H](CO)[C@@H](O)[C@H](O)[C@H]3O)cc(O)c12 [L7G, Luteolin-7-O-glucoside] | No |
| O=c1cc(-c2ccc(O)c(O)c2)oc2cc(O)cc(O)c12 [L, Luteolin] | No |
| C/C=C1/[C@H](O[C@@H]2O[C@H](CO)[C@@H](O)[C@H](O)[C@H]2O)OC=C(C(=O)OC)[C@H]1CC(=O)OCCc1ccc(O)c(O)c1 [OP, Oleuropein] | No |

Same assay, conditions: olive leaf components alone or in combination, listed as oleuropein

| SMILES | GYPA expression increase |
| --- | --- |
| C/C=C1/[C@H](O[C@@H]2O[C@H](CO)[C@@H](O)[C@H](O)[C@H]2O)OC=C(C(=O)OC)[C@H]1CC(=O)OCCc1ccc(O)c(O)c1 [OP, Oleuropein] | No effect |
